According to article PMC7496931, “Activation of Sirtuin 2 Inhibitors Employing Photoswitchable Geometry and Aqueous Solubility” (Chemmedchem, 2020):
Values joined by “and” are separate entries in the source; they are usually repeats but may differ in a detail not shown here. Equal entries are not always repeated. Where two headings read alike, the source gives them in different places.

How the values were obtained:
Assay type in all cases: biochemical
[1] = biological target: T1, Sirt1 (Homo sapiens, UniProt Q96EB6); assay: Fluorescence-based ZMAL deacetylase activity assay, Sirt1
T1 construct: Expression and purification of Sirt1_133−747, Sirt2_56−356, and Sirt3_118−395 was carried out as described previously; made in house
T1 sequence (Q96EB6 133-747): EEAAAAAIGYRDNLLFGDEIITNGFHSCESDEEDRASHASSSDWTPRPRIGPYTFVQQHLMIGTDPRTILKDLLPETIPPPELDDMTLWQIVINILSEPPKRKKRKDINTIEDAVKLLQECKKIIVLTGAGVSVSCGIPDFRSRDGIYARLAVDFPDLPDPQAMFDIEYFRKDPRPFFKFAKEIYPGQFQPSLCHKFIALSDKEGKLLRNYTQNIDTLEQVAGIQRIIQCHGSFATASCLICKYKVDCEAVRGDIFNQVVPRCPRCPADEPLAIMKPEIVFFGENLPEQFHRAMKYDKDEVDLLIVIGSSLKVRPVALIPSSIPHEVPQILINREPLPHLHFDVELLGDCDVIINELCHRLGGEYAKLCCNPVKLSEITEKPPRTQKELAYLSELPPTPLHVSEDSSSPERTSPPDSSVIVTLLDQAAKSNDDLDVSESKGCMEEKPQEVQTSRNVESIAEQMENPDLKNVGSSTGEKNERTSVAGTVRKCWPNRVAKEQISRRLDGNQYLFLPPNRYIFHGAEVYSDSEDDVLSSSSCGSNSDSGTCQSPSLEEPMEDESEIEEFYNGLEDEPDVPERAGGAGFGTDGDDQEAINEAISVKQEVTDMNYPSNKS
Description: (§1) The effect of the compounds on deacetylase activity of three human sirtuin isotypes (Sirt1–3) was investigated by a homogeneous fluorescence‐based assay, using (Z)‐Lys(acetyl)‐AMC (ZMAL) as substrate. In order to determine the impact of photoisomerization, the respective compounds were irradiated (365 nm, 5 min) in DMSO prior to incubation in the enzyme assay mixture. The results of the irradiated probes were finally compared to non‐irradiated measurements.
(§2) Cloning, expression and purification of recombinant proteins: Expression and purification of Sirt1_133−747, Sirt2_56−356, and Sirt3_118−395 was carried out as described previously.27 Identity and purity were verified by SDS‐PAGE.
(§3) Fluorescence‐based activity assay: The inhibitory effect of compounds on Sirt1–3 was detected via a previously reported fluorescence‐based assay.29 The synthetic substrate (Z)‐Lys(acetyl)‐AMC (ZMAL) is deacetylated by sirtuins, followed by tryptic digestion and thereby release of 7‐aminomethylcoumarin, leading to a fluorescent readout. Inhibition was determined by comparing percentage substrate conversion to a DMSO control after subtraction of the blank fluorescence signal. All compounds were tested at 100 or 50 μM and 10 μM respectively. […] IC50 values were calculated with OriginPro 9.0 G using a non‐linear regression to fit the dose response curve (Figure S6). An enzyme‐free blank control and a 100 % conversion control using AMC instead of ZMAL were measured as well. Inhibition measurements were performed in biological duplicates for all compounds. […]
(§4) Fluorescence-Based Activity Assay (ZMAL-Assay)
(§5) The influence of the synthesized compounds on the deacetylase activity of the class I sirtuins Sirt1–3 was determined in a homogenous fluorescence-based enzyme assay, using the artificial substrate Z-(Ac)Lys-AMC (ZMAL). ZMAL is processed by sirtuins yielding Z-Lys-AMC.
(§6) The latter is subsequently cleaved by tryptic digestion, releasing 7-amino-4-methylcoumarin (AMC), excitation of which leads to a fluorescent read out (λex=390 nm; λem=460 nm). Instead, […]
(§7) contribute to the fluorescence signal. Therefore, the fluorescence intensity is proportional to the activity of the respective sirtuin.
(§8) After subtraction of the blank fluorescence signal (without enzyme) from the signal of the respective probe, the residual signal intensity is related to a 100 % conversion control (AMC), […]
(§9) yielding the percentage substrate conversion. Comparison of the determined substrate conversion with a no-inhibition DMSO control yields the percentage inhibition at the respective […]
(§10) For determination of IC50, inhibitory activity of the respective compound was determined at 8 to 10 distinct concentrations. The measured values were analysed by a non-linear fit to the dose-response curve using a four parameter logistic model (Figure S6):
(§11) Figure S6: Non-linear regression of the dose-response curves of compounds 15c and 15f at the thermal equilibrium (∆, black) and after 5 minutes of 365 nm irradiation (red). […]
A maximal polarization control using just DMSO and a minimal polarization control using 1 µL of the 400 µM solution of 22 instead of inhibitor were performed as well as a blank control containing 1 µL of DMSO in 19 µL assay buffer. The mixture was incubated 10 min at 37 °C […]
(1 picture or pasted object on this page, not shown here)

[2] = biological target: T2, Sirt2 (Homo sapiens, UniProt Q8IXJ6); assay: Fluorescence-based ZMAL deacetylase activity assay, Sirt2; design: key to Sirt2 inhibition Δ (class): n.i.: no inhibition detected (<30 % @ 100 μM); u.i.: unspecific interactions
T2 construct: Expression and purification of Sirt1_133−747, Sirt2_56−356, and Sirt3_118−395 was carried out as described previously; made in house
T2 sequence (Q8IXJ6 56-356): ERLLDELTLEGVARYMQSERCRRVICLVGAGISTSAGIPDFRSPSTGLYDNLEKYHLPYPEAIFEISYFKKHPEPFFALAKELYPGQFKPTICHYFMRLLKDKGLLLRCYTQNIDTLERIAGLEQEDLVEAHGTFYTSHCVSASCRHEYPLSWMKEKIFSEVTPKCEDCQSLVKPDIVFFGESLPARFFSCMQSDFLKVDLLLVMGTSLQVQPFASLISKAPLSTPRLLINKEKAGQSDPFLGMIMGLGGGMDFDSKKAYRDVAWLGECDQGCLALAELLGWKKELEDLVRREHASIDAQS
Description: as §1, §2, §3, §4, §5, §6, §7, §8, §9, §10, §11
(§12) A maximal polarization control using just DMSO and a minimal polarization control using 1 µL of the 400 µM solution of 22 instead of inhibitor were performed as well as a blank control containing 1 µL of DMSO in 19 µL assay buffer. The mixture was incubated 10 min at 37 °C

[3] = biological target: T3, Sirt3 (Homo sapiens, UniProt Q9NTG7); assay: Fluorescence-based ZMAL deacetylase activity assay, Sirt3; design: key to Sirt3 inhibition Δ (class) / Sirt3 inhibition PSS [365 nm] (class): n.i.: no inhibition detected (<30 % @ 100 μM); u.i.: unspecific interactions
T3 construct: Expression and purification of Sirt1_133−747, Sirt2_56−356, and Sirt3_118−395 was carried out as described previously; made in house
T3 sequence (Q9NTG7 118-395): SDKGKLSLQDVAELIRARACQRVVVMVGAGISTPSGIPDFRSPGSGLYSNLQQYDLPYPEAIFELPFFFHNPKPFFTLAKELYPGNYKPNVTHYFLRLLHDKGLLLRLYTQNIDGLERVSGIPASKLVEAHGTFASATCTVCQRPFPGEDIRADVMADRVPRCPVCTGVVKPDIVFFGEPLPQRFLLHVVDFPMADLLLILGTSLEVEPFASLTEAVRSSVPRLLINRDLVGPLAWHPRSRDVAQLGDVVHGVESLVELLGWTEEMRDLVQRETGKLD
Description: as §1, §2, §3, §4, §5, §6, §7, §8, §9, §10, §11, §12

[4] = PSS after 5 min UV irradiation (365 nm), read-out: Sirt1 inhibition PSS [365 nm], percent inhibition
[5] = thermal equilibrium (Δ), read-out: Sirt1 inhibition Δ (class)
[6] = PSS 365 nm versus thermal equilibrium
[7] = PSS after 5 min UV irradiation (365 nm), read-out: Sirt2 inhibition PSS [365 nm], IC50
[8] = thermal equilibrium (Δ), read-out: Sirt2 inhibition Δ, IC50
[9] = PSS after 5 min UV irradiation (365 nm), read-out: Sirt3 inhibition PSS [365 nm], IC50
[10] = thermal equilibrium (Δ), read-out: Sirt3 inhibition Δ, IC50
[11] = @ 100 μM, PSS after 5 min UV irradiation (365 nm), read-out: Sirt1 inhibition PSS [365 nm], percent inhibition
[12] = PSS after 5 min UV irradiation (365 nm), read-out: Sirt3 inhibition PSS [365 nm], percent inhibition
[13] = thermal equilibrium (Δ), read-out: Sirt3 inhibition Δ, percent inhibition
[14] = PSS after 5 min UV irradiation (365 nm), read-out: Sirt1 inhibition PSS [365 nm] (class)
[15] = @ 100 μM, thermal equilibrium (Δ), read-out: Sirt1 inhibition Δ, percent inhibition

Row | SMILES | inhibition at 10 µM [1, 4] | inhibition at 100 µM [1, 5] | decrease of Sirt2 inhibition upon 365 nm irradiation (factor) [2, 6] | IC50 [2, 7] | IC50 [2, 8] | decrease of Sirt3 inhibition upon 365 nm irradiation (factor) [3, 6] | IC50 [3, 9] | IC50 [3, 10] | inhibition at 100 µM [1, 11] | inhibition at 10 µM ([2]; PSS after 5 min UV irradiation (365 nm), read-out: Sirt2 inhibition PSS [365 nm], percent inhibition (converted)) | inhibition at 10 µM ([2]; thermal equilibrium (Δ), read-out: Sirt2 inhibition Δ, percent inhibition (converted)) | inhibition at 10 µM [3, 12] | inhibition at 10 µM [3, 13] | inhibition at 100 µM [1, 14] | increase of Sirt2 inhibition upon 365 nm irradiation (factor) [2, 6] | inhibition at 100 µM [1, 15] | Sirt2 inhibition Δ (class) ([2]; thermal equilibrium (Δ)) | Sirt3 inhibition PSS [365 nm] (class) ([3]; PSS after 5 min UV irradiation (365 nm)) | Sirt3 inhibition Δ (class) ([3]; thermal equilibrium (Δ))
1 | CC(C)(C)OC(=O)NCc1ccc(/N=N/c2cncc(C(N)=O)c2)cc1 [15 c] | 6% | < 30% | three | 2.8 ± 0.1 µM | 0.9 µM and 0.88 µM | fourfold | 4 ± 0.7 µM | 1.1 ± 0.2 µM | – | – | – | – | – | – | – | – | – | – | –
2 | NC(=O)c1cncc(/N=N/c2ccc(Br)cc2)c1 [15 d] | – | < 30% | – | 8.4 ± 0.9 µM | 7.5 ± 0.5 µM | – | 13 ± 2.2 µM | 8.2 ± 1.4 µM | 47% | – | – | – | – | – | – | – | – | – | –
3 | CCCCNC(=O)c1ccc(/N=N/c2cncc(C(N)=O)c2)cc1 [15 e] | 10% | < 30% | – | – | – | – | – | – | – | 61% | 51% | 49% | 54% | – | – | – | – | – | –
4 | CCCCCCCCCC(=O)NCc1ccc(/N=N/c2cncc(C(N)=O)c2)cc1 [15 f] | – | < 30% | – | 1.6 ± 0.2 µM | 37 µM and 36.6 µM | – | – | – | – | – | – | – | – | < 30% | 23 fold | – | – | n.i. (n.i.: no inhibition detected (<30 % @ 100 μM)) | n.i. (n.i.: no inhibition detected (<30 % @ 100 μM))

Further lines, with some results ahead:

Row | inhibition at 10 µM [1, 4] | inhibition at 100 µM [1, 5] | decrease of Sirt2 inhibition upon 365 nm irradiation (factor) [2, 6] | IC50 [2, 7] | IC50 [2, 8] | decrease of Sirt3 inhibition upon 365 nm irradiation (factor) [3, 6] | IC50 [3, 9] | IC50 [3, 10] | inhibition at 100 µM [1, 11] | inhibition at 10 µM ([2]; PSS after 5 min UV irradiation (365 nm), read-out: Sirt2 inhibition PSS [365 nm], percent inhibition (converted)) | inhibition at 10 µM ([2]; thermal equilibrium (Δ), read-out: Sirt2 inhibition Δ, percent inhibition (converted)) | inhibition at 10 µM [3, 12] | inhibition at 10 µM [3, 13] | inhibition at 100 µM [1, 14] | increase of Sirt2 inhibition upon 365 nm irradiation (factor) [2, 6] | inhibition at 100 µM [1, 15] | Sirt2 inhibition Δ (class) ([2]; thermal equilibrium (Δ)) | SMILES | Sirt3 inhibition PSS [365 nm] (class) ([3]; PSS after 5 min UV irradiation (365 nm)) | Sirt3 inhibition Δ (class) ([3]; thermal equilibrium (Δ))
5 | – | – | 1.6 fold | 11.8 ± 1 µM | 7.2 ± 0.5 µM | – | – | – | 54% | – | – | 22% | 64% | – | – | 60% | – | NC(=O)c1cncc(/N=N/c2ccc(C#CCCCCO)cc2)c1 [15 g] | – | –
6 | – | < 30% | 2.5 fold | 37.5 ± 5.2 µM | 15.2 ± 1.8 µM | – | – | – | – | – | – | 18% | 42% | < 30% | – | – | – | CC(C)(O)C#Cc1ccc(/N=N/c2cncc(C(N)=O)c2)cc1 [15 h] | – | –
7 | – | < 30% | twofold | 1.6 ± 0.2 µM | 0.7 ± 0.21 µM | – | – | – | – | – | – | 24% | 23% | < 30% | – | – | – | NC(=O)c1cncc(OCc2cccc(/N=N/c3ccc(OCc4ccccc4)cc3)c2)c1 [20 a] | – | –
8 | – | < 30% | twofold | 6.4 ± 0.5 µM | 3.2 ± 0.5 µM | – | – | – | – | – | – | 47% | 34% | < 30% | – | – | – | NC(=O)c1cncc(OCc2cccc(/N=N/c3ccc(F)cc3)c2)c1 [20 b] | – | –
9 | – | – | – | 6.2 ± 0.54 µM | – | – | 17.2 ± 1.57 µM | – | 62% | – | – | – | – | – | – | 45% | u.i. | C#Cc1ccc(/N=N/c2cccc(COc3cncc(C(N)=O)c3)c2)cc1 [20 c] | – | u.i.
